Experimental data as given in patent publication US5409911A, “Prostaglandin analog for treating osteoporosis” (Merck & Co., Inc., priority 1992, dated 1995).
Read-outs that look alike come from different tables or passages of the source.

Assays:
[1] = system: bone loss due to limb immobilization; assay: Effects on bone loss due to limb immobilization in the rat (unilateral sciatic neurectomy, femoral ash weight); assay type: in vivo, rat (Sprague-Dawley male); settings: s.c. on two consecutive days before neurectomy; femoral ash weight difference, ten days post-neurectomy; ABP 0.5 mg/kg, PGE2/ABP 1.2 mg/kg, PGE2 0.7 mg/kg; n=6
Procedure: ABP, PGE2 /ABP, and PGE2 effects on bone loss due to limb immobilization in the rat
Male Sprague-Dawley rats weighing 270 grams (10-12 wks) were injected subcutaneously on two consecutive days prior to unilateral sciatic neurectomy induced hindlimb immobilization with the following doses: Vehicle (0.0 mg/kg), ABP (0.5mg/kg), PGE2 /ABP (1.2 mg/kg), PGE2 (0.7 mg/kg). Ten days post-neurectomy femora were removed at necropsy, dissected from the musculature, and placed in crucibles for incineration at 700° C. for twenty-four hours. Following incineration, the femoral ash content was weighed to the nearest 0.1 mg and the femoral ash weight differences between the control and immobilized hindlimb were calculated. Data represent mean ±SEM (n=6).

[2] = 1, 3 and 6 mg of PGE2/Kg/day, cited from earlier work
[3] = cited from earlier work
bone formation = settings: systemic injection; cited from earlier work
[4] = cited from earlier work; remark: listed apart in the source
[5] = long term s.c. administration; cited from earlier work
[6] = cited from earlier work; remark: listed apart in the source
[7] = administered systemically; cited from earlier work
bone resorption = assay type: in vivo, rat (Sprague-Dawley female); settings: equimolar weekly i.v. doses
Procedure: Lysylpyridinoline concentration is a measure of the breakdown of bone collagen.
Effect of PGE2 /ABP (IIIa) on bone resorption estimated by urinary excretion of lysypyridinoline in the rat
4 week old Sprague-Dawley female rats were injected intravenously via the tail vein with equimolar weekly doses of ABP (1 mg/kg, n=5), PGE2 /ABP (2.4 mg/kg, n=5), PGE2 (1.4 mg/kg, n=5), or saline (n=4) each. Filtered urine was collected after 12 and 26 days by housing individual rats in metabolic cages and providing them with food and water ad libitum. The overnight collections of urine were centrifuged at 1000×g for 10 minutes to remove any particles and the supernatant fluid was stored at -80° C. until analysis. Lysylpyridinoline (LP) was extracted from duplicate 1 ml aliquots by acid hydrolysis and subsequent low pressure CF-1 chromatography according to the method of Beardsworth et al. (1990). LP was further resolved by high pressure liquid chromatography according to the method of Uebelhart et al. (1990) and quantitated by comparison with an external standard. Urinary creatinine was measured using the picric acid colorimetric assay (Pharmacia Diagnostics Inc., Fairfield, N.J.). Final results were expressed as pmoles LP per μmole creatinine. […]

Structure (SMILES) | prevention of bone loss accompanying limb immobilization [1] | hard tissue mass ([2]; secondary spongiosa of proximal tibial metaphysis) | number of trabeculae [2] | periosteal and corticoendosteal bone mass ([3]; daily administration) | bone activity ([3]; s.c., 60, 120, and 180 days) | tibial diaphyseal bone mass ([3]; s.c., 60, 120, and 180 days) | bone formation in vivo (bone formation) | serum phosphate levels ([4]; 1 mg of PGE2, rats) | side effects ([4]; s.c., rats, doses of 3 mg/Kg/day or higher) | soft tissue weight [5] | side effects after oral dosing [6] | serum alkaline phosphatase levels ([6]; oral) | half-life [7] | urinary lysylpyridinoline (LP) level versus vehicle (bone resorption; 12 days) | urinary lysylpyridinoline (LP) level versus vehicle (bone resorption; 26 days)
CCCCC[C@H](O)/C=C/[C@H]1[C@H](O)CC(=O)[C@@H]1C/C=C\CCCC(=O)O [PGE2] | no statistical difference | increase in hard tissue mass | increase in the number of trabeculae | increases periosteal and corticoendosteal bone mass and sustains the transient increase in bone mass | elevated bone activity | increased tibial diaphyseal bone mass | stimulated | significant decreases | diarrhea and flushing of the extremities along with weight loss | soft tissue weight increases in adrenal glands, liver, kidneys, and lungs | loose stools, diarrhea, vomiting, infected sclerae | increased serum alkaline phosphatase levels | short half-life | – | –
NCCCC(O)(P(=O)([O-])[O-])P(=O)(O)O.[Na+].[Na+] [ABP, 4-amino-1-hydroxybutylidene bisphosphonic acid disodium salt] | effective | – | – | – | – | – | – | – | – | – | – | – | – | lower levels of LPs | lower levels of LPs
